In patent US20120289563A1, “COMBINATIONS OF IMIDAFENACIN AND SALIVARY STIMULANTS FOR THE TREATMENT OF OVERACTIVE BLADDER” (THERAVIDA, INC., priority 2011, published 2012):

Columns and labels:
[1] = 5 mg of pilocarpine; cited from earlier work
[2] = Pilot human study of saliva flow rate (Parafilm chewed for 2 minutes, saliva weighed); assay type: in vivo; conditions: 0.1 mg Uritos; single subject
Protocol: In this study, the effect of imidafenacin (Uritos®), pilocarpine, the combination of the two, and placebo was measured in separate, yet identical, studies in a single individual.
The following protocol was for a pilot human study to evaluate the extent of saliva flow rate following the administration of 0.1 mg Uritos® tablet and 5 or 10 mg pilocarpine HCl tablet after about 0.5 or 3 hrs from imidafenacin administration. The subject was a healthy, person. The subject performed the following: • 1. Fast the night before. • 2. No coffee or soda 8 hrs prior to taking the first dose. • 3. Record time voiding and measure urine if possible. • 4. Record extent of dryness of the mouth (Very dry, dry, and not dry). • 5. Record any adverse event. • 6. Chew a 1″×1″ piece of Parafilm (American National Can (Neenah, Wis. 54956) Bar code No. 7-466676999) over 2 minutes. • 7. Collect wetted Parafilm and saliva into a tared container (pre-weighed container). • 8. Measure the amount of saliva collected. • 9. Plot Saliva collected per 2 min time intervals against time.
The subject fasted overnight, but had 240 mL of water 1 hr prior to dose. The water continued ad lib until 1 hr pre and 1 hr post dose, other than 120 mL with Uritos® and 120 mL with 5 mg Salagen tablet. For lunch, the subject consumed a light sandwich. No coffee, soda, or caffeinated or alcoholic beverages was consumed. […]

Row | SMILES | Time of maximum saliva output after administration [1] | Time of maximum dry mouth / maximum saliva depression point after administration [2]
1 | CC[C@@H]1C(=O)OC[C@@H]1Cc1cncn1C [pilocarpine] | about 30 minutes | 
2 | Cc1nccn1CCC(C(N)=O)(c1ccccc1)c1ccccc1 [imidafenacin, 4-(2-methyl-1H-imidazol-1-yl)-2,2-diphenylbutanamide] |  | about 5 hours
